In patent US20240083857A1, “2-Methyl-Quinazolines” (Bayer Pharma Aktiengesellschaft, priority 2017, published 2024):

Legend:
[1] = biological target: K-Ras^G12C : hSOS1 interaction (Homo sapiens, UniProt Q07889); assay: Biochemical assay 1: K-Ras^G12C interaction assay with hSOS1 (HTRF); type: binding; conditions: read-out: Assay 1 (KRAS-SOS Interaction) activity expressed as IC50
Method: Biochemical assay 1: K-Ras^G12C Interaction Assay with hSOS1
This assay quantifies the equilibrium interaction of human SOS1 with K-Ras^Gl2C. Detection of the interaction is achieved by measuring homogenous time-resolved fluorescence resonance energy transfer (HTRF) from antiGST-Europium (FRET donor) bound to GST-K-Ras^G12C to anti-6His-XL665 bound to His-tagged hSOS1 (FRET-acceptor).
The assay buffer contained 5 mM HEPES pH 7.4 (Applichem), 150 mM NaCl (Sigma), 10 mM EDTA (Promega), 1 mM DTT (Thermofisher), 0.05% BSA Fraction V, pH 7.0, (ICN Biomedicals), 0.0025% (v/v) Igepal (Sigma) and 100 mM KF (FLUKA).
Concentrations of protein batches used were optimized to be within the linear range of the HTRF signal. A Ras working solution was prepared in assay buffer containing typically 10 nM GST-hK-RasG12C and 2 nM antiGST-Eu(K) (Cisbio, France). A SOS working solution was prepared in assay buffer containing typically 20 nM His-hSOS1 and 10 nM anti-6His-XL665 (Cisbio, France). An inhibitor control solution was prepared in assay buffer containing 10 nM anti-6His-XL665 without hSOS1.
(§1) Fifty nl of a 100-fold concentrated solution of the test compound in DMSO were transferred into a black microtiter test plate (384 or 1536, Greiner Bio-One, Germany). For this, either a Hummingbird liquid handler (Digilab, MA, USA) or an Echo acoustic system (Labcyte, CA, USA) was used.
(§2) All steps of the assay were performed at 20° C. A volume of 2.5 μl of the Ras working solution was added to all wells of the test plate using a Multidrop dispenser (Thermo Labsystems). After 2 min preincubation, 2.5 μl of the SOS working solution were added to all wells except for those wells at the side of the test plate that were subsequently filled with 2.5 μl of the inhibitor control solution. After 60 min incubation the fluorescence was measured with a Pherastar (BMG, Germany) using the HTRF module (excitation 337 nm, emission 1: 620 nm, emission 2: 665 nm).
(§3) IC50 values were calculated by 4-Parameter fitting using a commercial software package (Genedata Screener, Switzerland).

[2] = biological target: human SOS1 (loading of human K-Ras^G12C-GDP with fluorescent GTP-analog) (Homo sapiens, UniProt Q07889); assay: Biochemical assay 3: K-Ras^G12C activation assay by hSOS1 (HTRF); conditions: no GTP; for IC50: read-out: Assay 3 (KRAS-Activation by SOS no GTP) activity expressed as IC50; for inhibition at 20 µM: read-out: Assay 3 (KRAS-Activation by SOS no GTP) activity expressed as % inhibition at 20 μM
Text: Biochemical assay 3: K-Ras^G12C Activation Assay by hSOS1
K-Ras is a small GTPase that can bind GDP and GTP. The guanine nucleotide exchange factor SOS catalyzes the activation of K-Ras by promoting the exchange of GDP to GTP. SOS binds to K-Ras-GDP thereby opening the GDP-binding pocket to facilitate GDP release. Rebinding of excess nucleotide leads to dissociation of the K-Ras-SOS intermediate complex leaving K-Ras loaded with the nucleotide.
This assay quantifies human SOS1-mediated loading of human K-Ras^G12C-GDP with a fluorescent GTP-analog. Detection of successful loading is achieved by measuring homogenous time-resolved fluorescence resonance energy transfer (HTRF) from antiGST-Terbium (FRET donor) bound to GST-K-RasG12C to the loaded fluorescent GTP analog (FRET-acceptor).
The fluorescent GTP-analog EDA-GTP-Dy647P1 (2′/3′-O-(2-Aminoethyl-carbamoyl)-guanosine-5′-triphosphate labelled with Dy647P1 (Dyomics GmbH, Germany)) was synthesized by Jena Biosciences GmbH (Germany) and supplied as a 1 mM aqueous solution.
(§4) The assay buffer contained 10 mM HEPES pH 7.4 (Applichem), 150 mM NaCl (Sigma), 5 mM MgCl2 (Sigma), 1 mM DTT (Thermofisher), 0.05% BSA Fraction V, pH 7.0, (ICN Biomedicals), 0.0025% (v/v) Igepal (Sigma).
Concentrations of protein batches used were optimized to be within the linear range of the HTRF signal. A Ras working solution was prepared in assay buffer containing typically 100 nM GST-hK-RasG12C and 2 nM antiGST-Tb (Cisbio, France). A hSOS1 working solution was prepared in assay buffer containing typically 20 nM hSOS1 and 200 nM EDA-GTP-Dy647P1. An inhibitor control solution was prepared in assay buffer containing 200 nM EDA-GTP-Dy647P1 without hSOS1.
as §1
as §2, with “After 10” for “After 2”, “the hSOS1” for “the SOS”, “After 30” for “After 60”
as §3

[3] = biological target: human SOS1 (nucleotide exchange of K-Ras^G12C) (Homo sapiens, UniProt Q07889); assay: Biochemical assay 2: K-Ras^G12C activation assay by hSOS1 at high GTP concentration (HTRF); conditions: read-out: Assay 2 (KRAS-Activation by SOS high GTP) activity expressed as % inhibition at 20 μM; high GTP; at 20 μM
Text: Biochemical Assay 2: K-Ras^G12C Activation Assay by hSOS1 at High GTP Concentration
This assay quantifies human SOS1-mediated nucleotide exchange of K-Ras^G12C preloaded with a fluorescent […] and in presence of an excess of free GTP. Loaded hK-Ras^G12C generates a high HTRF-signal by energy transfer from antiGST-Terbium (FRET donor) bound to K-Ras to the loaded fluorescent GDP analog (FRET-acceptor). SOS1 activity exchanges the fluorescent GDP for non-fluorescent GTP and therefore leads to a reduction of the HTRF signal.
The fluorescent GDP-analog EDA-GDP-Dy647P1 (2′/3′-O-(2-Aminoethyl-carbamoyl)-guanosine-5′-diphosphate labelled with Dy647P1 (Dyomics GmbH, Germany)) was synthesized by Jena Biosciences GmbH (Germany) and supplied as a 1 mM aqueous solution.
Concentrations of protein batches used were optimized to be within the linear range of the HTRF signal.
Preparation of GST-tagged hK-Ras^Gl2C loaded with fluorescent nucleotide was performed as follows: incubation of 11.5 μM hK-Ras^Gl2C with 5-fold excess GDP-Dy647 nucleotide (54 μM) in 500 μl NLS-buffer (RAS activation Kit Jena Bioscience, Kat. #PR-950) for 10 min at 37° C. Addition of 20 μl 1 M MgCl2 (Sigma) to final 40 mM and store on ice. Purification into buffer (10 mM HEPES pH 7.4 (Applichem), 150 mM NaCl (Sigma), 5 mM MgCl2 (Sigma)) by use of a PD-Minitrap desalting column (GE Healthcare). Concentration of 1 ml purified hK-Ras-GDP-Dy647 is approx. 4-5 μM.
as §4
A Ras working solution was prepared in assay buffer containing typically 80 nM loaded GST-hK-RasG12C-EDA-GDP-Dy647P1 and 2 nM antiGST-Tb (Cisbio, France). A hSOS1 working solution was prepared in assay buffer containing typically 8 nM His-hSOS1 and 100 μM GTP (Jena Bioscience, Germany). An inhibitor control solution was prepared in assay buffer containing the same concentration of […].
as §1
as §2, with “hSOS1” for “SOS”, “20” for “60”
as §3

Compound	IC50 [1] [µM]	IC50 [2] [µM]	inhibition at 20 µM [2] [%]	inhibition at 20 µM [3] [%]
COc1cc2nc(C)nc(N[C@@H](C)c3ccc(-c4ccc5c(ccn5C)c4)s3)c2cc1OC (racemic) [Example 49, 6,7-dimethoxy-2-methyl-N-{1-[5-{1-methyl-1H-indol-5-yl)thiophen-2-yl]ethyl}quinazolin-4-amine]	19.6	–	–	–
COc1cc2nc(C)nc(N[C@@H](C)c3ccc(-c4ccc5c(c4)OCCO5)s3)c2cc1OC (racemic) [Example 98, N-{1-[5-(2,3-dihydro-1,4-benzodioxin-6-yl)thiophen-2-yl]ethyl}-6,7-dimethoxy-2-methylquinazolin-4-amine]	16.1	–	–	–
CCCNC(=O)c1ccc(-c2ccc([C@H](C)Nc3nc(C)nc4cc(OC)c(OC)cc34)s2)cc1 (racemic) [Example 141, 4-(5-{1-[(6,7-dimethoxy-2-methylquinazolin-4-yl)amino]ethyl}thiophen-2-yl)-N-propylbenzamide]	5.63	11.1	–	–
COc1cc2nc(C)nc(N[C@@H](C)c3ccc(-c4cccc(OC(F)(F)F)c4)s3)c2cc1OC (racemic) [Example 151, 6,7-dimethoxy-2-methyl-N-[1-{5-[3-(trifluoromethoxy)phenyl]thiophen-2-yl}ethyl]quinazolin-4-amine]	10.4	13.3	–	–
COc1cc2nc(C)nc(N[C@@H](C)c3ccc(-c4ccc5c(c4)OCO5)s3)c2cc1OC (racemic) [Example 163, N-{1-[5-(1,3-benzodioxol-5-yl)thiophen-2-yl]ethyl}-6,7-dimethoxy-2-methylquinazolin-4-amine]	13.6	–	–	–
COc1cccc(-c2ccc([C@H](C)Nc3nc(C)nc4cc(OC)c(OC)cc34)s2)c1 (racemic) [Example 167, 6,7-dimethoxy-N-{1-[5-(3-methoxyphenyl)thiophen-2-yl]ethyl}-2-methylquinazolin-4-amine]	16.9	–	–	–
COc1cc2nc(C)nc(N[C@@H](C)c3ccc(-c4cccc(C(F)(F)F)c4)s3)c2cc1OC (racemic) [Example 168, 6,7-dimethoxy-2-methyl-N-[1-{5-[3-(trifluoromethyl)phenyl]thiophen-2-yl}ethyl]quinazolin-4-amine]	12.2	–	–	–
COc1cc2nc(C)nc(N[C@@H](C)c3ccc(-c4ccc5c(ccn5C)c4)s3)c2cc1OC (stereo in doubt) [Example 49, 6,7-dimethoxy-2-methyl-N-{1-[5-{1-methyl-1H-indol-5-yl)thiophen-2-yl]ethyl}quinazolin-4-amine]	–	–	36	35
COc1cc2nc(C)nc(N[C@@H](C)c3ccc(-c4ccc5c(c4)OCCO5)s3)c2cc1OC (stereo in doubt) [Example 98, N-{1-[5-(2,3-dihydro-1,4-benzodioxin-6-yl)thiophen-2-yl]ethyl}-6,7-dimethoxy-2-methylquinazolin-4-amine]	–	–	24	43
CCCNC(=O)c1ccc(-c2ccc([C@H](C)Nc3nc(C)nc4cc(OC)c(OC)cc34)s2)cc1 (stereo in doubt) [Example 141, 4-(5-{1-[(6,7-dimethoxy-2-methylquinazolin-4-yl)amino]ethyl}thiophen-2-yl)-N-propylbenzamide]	–	–	–	25
COc1cc2nc(C)nc(N[C@@H](C)c3ccc(-c4cccc(OC(F)(F)F)c4)s3)c2cc1OC (stereo in doubt) [Example 151, 6,7-dimethoxy-2-methyl-N-[1-{5-[3-(trifluoromethoxy)phenyl]thiophen-2-yl}ethyl]quinazolin-4-amine]	–	–	–	51
COc1cc2nc(C)nc(N[C@@H](C)c3ccc(-c4ccc5c(c4)OCO5)s3)c2cc1OC (stereo in doubt) [Example 163, N-{1-[5-(1,3-benzodioxol-5-yl)thiophen-2-yl]ethyl}-6,7-dimethoxy-2-methylquinazolin-4-amine]	–	–	35	42
COc1cccc(-c2ccc([C@H](C)Nc3nc(C)nc4cc(OC)c(OC)cc34)s2)c1 (stereo in doubt) [Example 167, 6,7-dimethoxy-N-{1-[5-(3-methoxyphenyl)thiophen-2-yl]ethyl}-2-methylquinazolin-4-amine]	–	–	37	40
COc1cc2nc(C)nc(N[C@@H](C)c3ccc(-c4cccc(C(F)(F)F)c4)s3)c2cc1OC (stereo in doubt) [Example 168, 6,7-dimethoxy-2-methyl-N-[1-{5-[3-(trifluoromethyl)phenyl]thiophen-2-yl}ethyl]quinazolin-4-amine]	–	–	32	38
